For assay [1], the target named is Rho-associated protein kinase 1 (Homo sapiens, UniProt Q13464). Nature of the assay: Inhibition of ROCK1 (unknown origin).
For assay [2], the target named is Rho-associated protein kinase 2 (Homo sapiens, UniProt O75116). Description: Inhibition of ROCK2 (unknown origin).
Another assay is filed under the species Homo sapiens. Nature of the assay: Selectivity ratio of IC50 for inhibition of ROCK2 (unknown origin) to IC50 for inhibition of ROCK1 (unknown origin).

pIC50: −log10 of the molar value.

Rho-associated protein kinase 1, sequence (Q13464 whole entry): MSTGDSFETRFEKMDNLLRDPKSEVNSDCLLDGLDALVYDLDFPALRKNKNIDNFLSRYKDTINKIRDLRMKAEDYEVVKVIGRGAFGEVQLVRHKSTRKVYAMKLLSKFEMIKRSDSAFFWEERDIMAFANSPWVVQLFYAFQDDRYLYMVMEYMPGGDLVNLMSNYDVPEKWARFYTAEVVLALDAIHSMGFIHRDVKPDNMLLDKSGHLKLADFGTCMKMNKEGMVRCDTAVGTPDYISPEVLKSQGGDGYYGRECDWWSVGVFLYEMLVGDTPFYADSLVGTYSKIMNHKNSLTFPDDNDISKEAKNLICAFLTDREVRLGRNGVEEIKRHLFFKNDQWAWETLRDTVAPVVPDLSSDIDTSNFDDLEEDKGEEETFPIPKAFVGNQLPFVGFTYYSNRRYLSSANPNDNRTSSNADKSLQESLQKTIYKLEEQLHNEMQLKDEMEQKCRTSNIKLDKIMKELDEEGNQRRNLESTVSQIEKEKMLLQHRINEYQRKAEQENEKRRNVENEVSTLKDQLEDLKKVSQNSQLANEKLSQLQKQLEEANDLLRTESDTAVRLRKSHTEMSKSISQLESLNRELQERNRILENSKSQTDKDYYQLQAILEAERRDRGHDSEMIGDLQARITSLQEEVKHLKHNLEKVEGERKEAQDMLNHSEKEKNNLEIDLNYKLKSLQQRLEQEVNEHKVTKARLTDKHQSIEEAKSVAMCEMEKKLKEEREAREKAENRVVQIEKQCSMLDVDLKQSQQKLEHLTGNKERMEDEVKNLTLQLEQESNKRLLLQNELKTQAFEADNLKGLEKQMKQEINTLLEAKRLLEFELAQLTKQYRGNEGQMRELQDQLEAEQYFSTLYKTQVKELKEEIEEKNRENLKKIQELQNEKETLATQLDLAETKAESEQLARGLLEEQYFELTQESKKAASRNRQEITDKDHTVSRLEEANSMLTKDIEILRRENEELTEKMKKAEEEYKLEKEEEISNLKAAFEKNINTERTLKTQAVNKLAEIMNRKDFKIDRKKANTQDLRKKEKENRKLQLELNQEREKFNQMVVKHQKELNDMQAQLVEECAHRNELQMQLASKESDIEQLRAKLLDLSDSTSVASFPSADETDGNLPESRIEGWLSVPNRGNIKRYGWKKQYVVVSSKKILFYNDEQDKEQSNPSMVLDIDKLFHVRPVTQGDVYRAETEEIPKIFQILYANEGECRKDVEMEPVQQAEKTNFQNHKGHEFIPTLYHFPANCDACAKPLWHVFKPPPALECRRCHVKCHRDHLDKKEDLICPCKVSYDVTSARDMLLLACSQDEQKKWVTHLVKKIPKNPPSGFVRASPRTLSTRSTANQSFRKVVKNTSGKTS
Rho-associated protein kinase 2, sequence (O75116 whole entry): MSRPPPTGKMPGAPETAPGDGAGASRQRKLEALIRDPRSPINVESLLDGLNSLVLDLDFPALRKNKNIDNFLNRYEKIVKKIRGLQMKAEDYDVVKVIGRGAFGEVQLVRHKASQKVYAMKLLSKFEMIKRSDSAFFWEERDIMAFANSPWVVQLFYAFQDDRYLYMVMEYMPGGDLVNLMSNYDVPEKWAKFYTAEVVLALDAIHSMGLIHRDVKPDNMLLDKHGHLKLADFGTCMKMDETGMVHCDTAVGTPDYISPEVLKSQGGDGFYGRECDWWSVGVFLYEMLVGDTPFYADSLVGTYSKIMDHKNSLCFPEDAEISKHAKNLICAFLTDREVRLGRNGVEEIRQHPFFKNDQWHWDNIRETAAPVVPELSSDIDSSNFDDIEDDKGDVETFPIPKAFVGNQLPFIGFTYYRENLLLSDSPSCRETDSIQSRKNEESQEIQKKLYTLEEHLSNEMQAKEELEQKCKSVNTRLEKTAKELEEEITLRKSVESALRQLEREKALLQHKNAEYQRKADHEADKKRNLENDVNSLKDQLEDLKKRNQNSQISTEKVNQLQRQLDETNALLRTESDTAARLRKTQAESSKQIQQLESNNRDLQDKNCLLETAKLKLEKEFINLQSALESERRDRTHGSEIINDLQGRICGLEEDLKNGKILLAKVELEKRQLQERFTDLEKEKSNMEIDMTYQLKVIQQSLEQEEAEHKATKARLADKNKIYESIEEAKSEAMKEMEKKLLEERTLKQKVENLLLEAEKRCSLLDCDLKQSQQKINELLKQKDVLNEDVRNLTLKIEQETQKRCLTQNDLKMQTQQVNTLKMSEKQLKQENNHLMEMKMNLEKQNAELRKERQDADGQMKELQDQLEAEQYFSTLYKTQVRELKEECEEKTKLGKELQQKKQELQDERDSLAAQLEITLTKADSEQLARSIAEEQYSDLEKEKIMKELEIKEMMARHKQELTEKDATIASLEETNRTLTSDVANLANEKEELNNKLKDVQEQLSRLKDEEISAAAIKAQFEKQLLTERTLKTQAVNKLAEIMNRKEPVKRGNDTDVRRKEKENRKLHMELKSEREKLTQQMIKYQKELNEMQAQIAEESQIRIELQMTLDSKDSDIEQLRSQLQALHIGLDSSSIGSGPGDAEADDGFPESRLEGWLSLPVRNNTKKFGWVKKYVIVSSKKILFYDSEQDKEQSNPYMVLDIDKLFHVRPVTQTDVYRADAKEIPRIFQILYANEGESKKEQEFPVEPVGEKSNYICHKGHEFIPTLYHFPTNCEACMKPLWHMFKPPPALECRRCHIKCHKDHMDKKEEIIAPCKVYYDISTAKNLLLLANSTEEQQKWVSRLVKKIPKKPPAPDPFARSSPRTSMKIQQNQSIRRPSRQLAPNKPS

What is called pIC50 is the negative decadic logarithm of the IC50, by convention in mol/L. A low value points to a high IC50. As for `CC(C)Oc1cccc(NC2CCN(c3ccc(-c4n[nH]c(=O)c5ccccc45)cc3)C2=O)c1` (centres undefined), the figures for the pIC50 in assay [1] and in assay [2] were 6.42 and 7.74, respectively.

On to `O=C1N(c2ccccc2)CCN1c1ccc(-c2n[nH]c(=O)c3ccccc23)cc1`, for which the figures for the negative logarithm of the IC50 (pIC50) in assay [1] and in assay [2] were 6.62 and 8.28, respectively.

On to `O=C1C(NC2CCCC2)CCN1c1ccc(-c2n[nH]c(=O)c3ccccc23)cc1` (centres undefined), for which the negative logarithm of the IC50 (pIC50) in assay [1] is under 5.70; in assay [2], 5.75.

For `O=C1N(Cc2ccccc2)CCN1c1ccc(-c2n[nH]c(=O)c3ccccc23)cc1`, the pIC50 was under 5.70 in assay [1] and 7.25 in assay [2].

As to `O=C(Nc1ccc(-c2n[nH]c(=O)c3ccccc23)cc1)N1CCc2ccccc21`, in assay [2], the negative-log IC50 (pIC50) is 9.00. Besides, the Ratio IC50 in the assay filed under Homo sapiens was found to be 20.

Take `O=C1C(c2ccccc2)CCN1c1ccc(-c2n[nH]c(=O)c3ccccc23)cc1` (centres undefined): the pIC50 in assay [1] was under 5.70; in assay [2] it was 6.46.

Take `O=C1C(c2ccc(-c3n[nH]c(=O)c4ccccc34)cc2)CCN1c1ccccc1` (centres undefined): the pIC50 was under 5.70 in assay [1] and 6.43 in assay [2].

With `O=c1[nH]nc(-c2ccc(-n3ncn(Cc4ccccc4)c3=O)cc2)c2ccccc12`, the pIC50 is under 5.70 in assay [1] and 6.52 in assay [2].

Consider `O=C1C(Oc2cccc(OC(F)(F)F)c2)CCN1c1ccc(-c2n[nH]c(=O)c3ccccc23)cc1` (centres undefined), for which the results for the negative-log IC50 (pIC50) in assay [1] and in assay [2] were 7.00 and 8.20, respectively.

In the case of `O=C1C(NCc2ccccc2)CCN1c1ccc(-c2n[nH]c(=O)c3ccccc23)cc1` (centres undefined), the pIC50 is under 5.70 in assay [1] and 5.85 in assay [2].

Regarding `O=C1N(c2ccc(-c3n[nH]c(=O)c4ccccc34)cc2)CCN1c1cccnc1`, the pIC50 is 6.70 in assay [1] and 7.72 in assay [2].

For `CS(=O)(=O)c1cccc(NC2CCN(c3ccc(-c4n[nH]c(=O)c5ccccc45)cc3)C2=O)c1` (centres undefined), the pIC50 in assay [1] is 6.37; in assay [2], 7.80.

Consider `O=C1C(Nc2cccc(OC(F)(F)F)c2)CCN1c1ccc(-c2n[nH]c(=O)c3ccccc23)cc1` (centres undefined), for which the pIC50 is 6.57 in assay [1] and 8.25 in assay [2].

Turning to `O=C1C(Nc2ccccc2)CCN1c1ccc(-c2n[nH]c(=O)c3ccccc23)cc1` (centres undefined), the values for the pIC50 in assay [1] and in assay [2] were 6.02 and 7.47, respectively.

On to `O=C(Cc1ccc(-c2n[nH]c(=O)c3ccccc23)cc1)N1CCc2ccccc21`, for which the pIC50 in assay [1] is 6.47; in assay [2], 8.15.

For `O=C1C(Nc2cccc(OC(F)F)c2)CCN1c1ccc(-c2n[nH]c(=O)c3ccccc23)cc1` (racemic), the results for the pIC50 in assay [1] and in assay [2] were 6.48 and 8.70, respectively.

Consider `COc1cccc(NC2CCN(c3ccc(-c4n[nH]c(=O)c5ccccc45)cc3)C2=O)c1` (centres undefined), for which the figures for the pIC50 in assay [1] and in assay [2] were 5.98 and 7.64, respectively.

Regarding `O=C1C(Nc2cccc(OC(F)F)c2)CCN1c1ccc(-c2n[nH]c(=O)c3ccccc23)cc1` (stereo in doubt; 21), the values for the pIC50 in assay [1] and in assay [2] were 6.00 and 7.82, respectively.

On to `O=C1OC(c2ccccc2)CN1c1ccc(-c2n[nH]c(=O)c3ccccc23)cc1` (centres undefined), for which the pIC50 in assay [1] is 6.64; in assay [2], 7.22.

For `O=C1C(Nc2cccc(OC(F)F)c2)CCN1c1ccc(-c2n[nH]c(=O)c3ccccc23)cc1` (stereo in doubt; 22), the pIC50 is 6.70 in assay [1] and 8.60 in assay [2].

Take `O=C1CC(c2ccccc2)CN1c1ccc(-c2n[nH]c(=O)c3ccccc23)cc1` (centres undefined): the pIC50 was 5.82 in assay [1] and 6.31 in assay [2].

Regarding `Cc1nc2ccc(NC3CCN(c4ccc(-c5n[nH]c(=O)c6ccccc56)cc4)C3=O)cc2s1` (centres undefined), the negative logarithm of the IC50 (pIC50) in assay [1] was 6.94; in assay [2] it was 8.13.

The record behind these values is ChEMBL document CHEMBL5257108, “Phthalazinone-based lactams and cyclic ureas as ROCK2 selective inhibitors” (Bioorg Med Chem Lett, 2023).
